Assay results from ChEMBL document CHEMBL1135868, “Small ligands interacting with the phosphotyrosine binding pocket of the Src SH2 protein” (Bioorg Med Chem Lett, 2002).

molecular target: Proto-oncogene tyrosine-protein kinase Src (Homo sapiens, UniProt P12931); experiment: The compound was evaluated for its binding affinity towards phosphotyrosine binding pocket of Src protein tyrosine kinase SH2 domain
Sequence (P12931 2-536 limits assumed): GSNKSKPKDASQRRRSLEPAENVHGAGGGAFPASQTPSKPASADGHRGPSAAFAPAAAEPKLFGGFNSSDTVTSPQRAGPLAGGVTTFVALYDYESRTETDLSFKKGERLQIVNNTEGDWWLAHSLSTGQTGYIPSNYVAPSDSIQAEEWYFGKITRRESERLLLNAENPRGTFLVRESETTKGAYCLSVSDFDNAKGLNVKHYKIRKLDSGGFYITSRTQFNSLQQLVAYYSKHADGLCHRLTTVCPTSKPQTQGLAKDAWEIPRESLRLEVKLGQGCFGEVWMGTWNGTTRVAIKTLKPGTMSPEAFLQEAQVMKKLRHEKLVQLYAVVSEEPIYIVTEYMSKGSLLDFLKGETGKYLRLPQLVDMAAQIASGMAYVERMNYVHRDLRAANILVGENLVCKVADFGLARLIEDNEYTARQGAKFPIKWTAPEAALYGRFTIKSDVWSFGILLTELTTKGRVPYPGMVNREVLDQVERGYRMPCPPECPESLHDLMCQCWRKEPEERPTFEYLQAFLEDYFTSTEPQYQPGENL

Compared with COP(=O)(O)Oc1ccccc1C=O, CC(C)OP(=O)(O)Oc1ccccc1C=O is 1.6-fold lower in IC50: 3.3 mM for the first, 2.1 mM for the second. The second is the more potent here.

COC(=O)c1cccc(OP(=O)(O)O)c1 and COC(=O)c1ccc(OP(=O)(O)O)cc1 are the same in IC50: 4 mM for the first, 4 mM for the second.

First: COc1ccc(OP(=O)(O)O)cc1
Second: Cc1ccc(OP(=O)(O)O)cc1
The IC50 of the first is 2-fold higher: 4 mM for the first, 2 mM for the second. The second is the more potent here.

Compared with O=P(O)(O)Oc1ccc(SC(F)(F)F)cc1, Nc1ccc(OP(=O)(O)O)cc1 is 2-fold lower in IC50: 1.2 mM for the first, 0.6 mM for the second.

Compared with COC(=O)c1cc2ccccc2cc1OP(=O)(O)O, O=P(O)(O)Oc1ccc2ccccc2c1 is 3.2-fold lower in IC50: 3.2 mM for the first, 1 mM for the second. The second is the more potent here.

Compared with CCc1ccc(NC(=O)P(=O)(O)OCc2ccccc2)cc1, O=C(Nc1ccc(OCc2ccccc2)cc1)P(=O)(O)O is lower in IC50: greater than 5 mM for the first, 0.8 mM for the second. The second is the more potent here.

Going from CC(C)c1ccc(C(O)P(=O)(O)O)cc1 (stereo not drawn) to CCCOc1ccc(C(O)P(=O)(O)O)cc1 (stereo not drawn), the IC50 falls from greater than 10 mM to 2.4 mM.

COc1ccccc1C(O)P(=O)(O)O (stereo not drawn) and O=P(O)(O)C(O)c1ccccc1 (stereo not drawn) [ALPHA HYDROXY BENZYLPHOSPHONATE] cannot be ordered by IC50: greater than 10 mM for the first, greater than 10 mM for the second.

First: O=P(O)(O)Oc1cccc2ccccc12
Second: O=P(O)(O)Oc1cccc2cccnc12
The IC50 of the first is lower: 1 mM for the first, greater than 10 mM for the second. The first is the more potent here.

CCCCOc1ccc(NC(=O)P(=O)(O)O)cc1 and CCOC(=O)c1ccc(NC(=O)P(=O)(O)O)cc1 are within 1.5-fold of each other in IC50: 3.9 mM for the first, 3.6 mM for the second.

Compared with CC(C)(C)c1ccc(OP(=O)(O)O)cc1, O=[N+]([O-])c1ccc(OP(=O)(O)O)cc1 [p-NITROPHENYLPHOSPHATE] is 4-fold lower in IC50: 4 mM for the first, 1 mM for the second. The second is the more potent here.

First: COc1cc(NC(=O)P(=O)(O)O)cc(OC)c1OC
Second: O=C(Nc1ccccc1OC(F)(F)F)P(=O)(O)O
The IC50 of the first is 1.9-fold lower: 2.1 mM for the first, 4 mM for the second. The first is the more potent here.

Compared with O=P(O)(O)C(O)c1ccc2ccccc2c1 (stereo not drawn), O=P(O)(O)C(O)c1ccc(-c2ccccc2)cc1 (stereo not drawn) is higher in IC50: 4.4 mM for the first, greater than 10 mM for the second. The first is the more potent here.

First: O=P(O)(O)C(O)C1CCCCC1 (stereo not drawn)
Second: Cc1cccc(OP(=O)(O)O)c1
The IC50 of the first is higher: greater than 10 mM for the first, 4 mM for the second.

Going from Cc1cccc(C)c1OP(=O)(O)O to O=Cc1cccc(C=O)c1OP(=O)(O)O, the IC50 falls from greater than 10 mM to 0.5 mM.

First: O=P(O)(O)Oc1ccccc1Cl
Second: O=Cc1ccccc1OP(=O)(O)O
The IC50 of the first is 18-fold higher: 3.5 mM for the first, 0.2 mM for the second.

Compared with CC(=O)c1ccc2ccccc2c1OP(=O)(O)O, O=C(O)c1ccccc1OP(=O)(O)O [FOSFOSAL] is 1.8-fold lower in IC50: 3.5 mM for the first, 2 mM for the second.

O=Cc1cccc(OP(=O)(O)O)c1 and O=P(O)(O)Oc1ccccc1 [PHENYL DIHYDROGEN PHOSPHATE] are within 1.5-fold of each other in IC50: 2.4 mM for the first, 2.5 mM for the second.

First: O=C(NCc1ccccc1)P(=O)(O)O [(BENZYLAMINO)CARBONYLPHOSPHONIC ACID]
Second: O=C(NCCc1ccccc1)P(=O)(O)O [PHENETHYLCARBAMOYLPHOSPHONIC ACID]
The IC50 of the first is lower: 4.4 mM for the first, greater than 5 mM for the second. The first is the more potent here.
